This is an account of results in publication PMC6479877, “Development of Chemical Tools to Monitor Human Kallikrein 13 (KLK13) Activity” (International Journal of Molecular Sciences, 2019).

Where a SMILES comes first, the peptide text is derived from it. The star is where a group is joined. Biotin = O=C1N[C@H]2[C@H](CS[C@H]2CCCCC(=O)*)N1; AEA = NCCOCC(=O)O; CH2Cl = ClC*

Experiment [1] has as its target T1, KLK13 (Homo sapiens, UniProt Q9UKR3).
T1 sequence (Q9UKR3 26-277 limits assumed): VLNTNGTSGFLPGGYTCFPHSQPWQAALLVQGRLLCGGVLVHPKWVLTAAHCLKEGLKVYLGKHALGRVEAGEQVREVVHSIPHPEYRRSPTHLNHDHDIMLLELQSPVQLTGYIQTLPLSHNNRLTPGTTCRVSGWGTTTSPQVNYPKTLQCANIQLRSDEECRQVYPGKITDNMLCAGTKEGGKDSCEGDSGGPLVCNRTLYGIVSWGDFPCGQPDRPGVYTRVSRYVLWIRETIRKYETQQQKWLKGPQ
In words: Inhibitory activity of CMK inhibitors / activity-based probes against KLK13. It is filed as biochemical. Further details: His6 (the forward primers encode HHHHHH followed by DDDDK; the protein was purified on nickel) (N); made in house. To be noted: progress curves method, irreversible inhibition, inhibitor 0–50 µM, Substrate 2 10 µM, KLK13 10 nM, 37 °C, pH 7.5, mean ± SD of three replicates. Here is the method:
The kinetic parameters of inhibition were determined using a progress curve model for irreversible inhibition, as described previously. […] Upon the addition of KLK13 (final concentration 10 nM), the fluorescence of the hydrolyzed substrate was monitored in each sample at excitation and emission wavelengths of 320 and 450 nm, respectively, for 1 h using a microplate reader Gemini EM (Molecular Devices, Berkshire, UK). The reactions were carried out in 200 µL of final volume of 50 mM Tris-Cl (pH 7.5) containing 1 mM EDTA and 0.5 μM heparin at 37 °C. Progress curves were fitted to the resulting data points and then kobs derived from each curve was plotted against inhibitor concentration. Final values of kass were calculated by linear regression and presented as mean ± SD of three independent replicates.

Experiment [2] concerns the target T1, KLK13. In words: Detection of KLK13 using biotinylated ABPs (streptavidin-HRP Western blot). The format is binding. The arrangement: His6 (the forward primers encode HHHHHH followed by DDDDK; the protein was purified on nickel) (N); made in house; host or cells: Leishmania tarentolae strain T7-TR (LEXSY), secreted to the medium. To be noted: 1 µM probe, TNET buffer, 1 h at 37 °C; twofold dilutions of KLK13 500 to 4 ng. Here is the method: Purified active KLK13 (250 ng) was preincubated with increasing concentrations of Bt-PEG-VRFR-CMK or Bt-VRFR-CMK in TNET buffer (0.1 M Tris-HCl, 150 mM NaCl, 5 mM EDTA, 0.05% Tween-20, pH 7.5) for 1 h at 37 °C. Samples were analyzed by SDS-PAGE followed by wet electrotransfer onto a PVDF membrane (GE Healthcare). Membranes were blocked in 5% BSA in TBS buffer (50 mM Tris-HCl, 0.5 M NaCl, pH 7.5) with 0.1% Tween overnight, at 4 °C, followed by incubation with 1:10,000 diluted Streptavidin-HRP (Sigma Aldrich, S2438, Poznan, Poland) for 2 h at RT. After intensive washing with TBS buffer with 0.1% Tween, the signal was developed with Pierce ECL WB substrate (Thermo Fisher Scientific) and visualized manually using AGFA films (Agfa HealthCare, Mortsel, Belgium). To establish the detection limit, decreasing amounts of active KLK13 (ranging from 3.9-500 ng) were preincubated with 1 µM Bt-PEG-VRFR-CMK in TNET buffer for 1 h at 37 °C and visualized by streptavidin-HRP Western blot as described above.
On the technique in general: In western blotting, separated proteins are transferred to a membrane and probed.

For experiment [3], the target named is T1, KLK13. In words: Kinetic parameters of substrate hydrolysis by KLK13. The arrangement: His6 (the forward primers encode HHHHHH followed by DDDDK; the protein was purified on nickel) (N); made in house; host or cells: Leishmania tarentolae strain T7-TR (LEXSY), secreted to the medium. The conditions noted are these: KLK13 1.25 × 10^−9 M; for Km / kcat: measured in triplicate, ± SD; for kcat/KM (specificity constant): calculated from kcat and KM. It is filed as biochemical. Here is the method:
The specificity constant (kcat/KM) was calculated from kcat and KM. The details of kinetic studies and the method of calculating kinetic parameters have been described previously.

In experiment [4] the target is T1, KLK13. In words: Detection limit of KLK13 activity with the substrates. It is filed as biochemical. The arrangement: His6 (the forward primers encode HHHHHH followed by DDDDK; the protein was purified on nickel) (N); made in house; host or cells: Leishmania tarentolae strain T7-TR (LEXSY), secreted to the medium. To be noted: constant amount of substrate, decreasing KLK13; 50 mM Tris-Cl pH 7.5, 1 mM EDTA, 0.5 μM heparin, 37 °C. The procedure:
The detection limit was established by analyzing the correlation between an increase in absorbance/fluorescence and enzyme concentration at constant quantities of each, ABZ-Val-Arg-Phe-Arg-ANB-NH2 (Substrate 1) and ABZ-[…]3-NO2)-NH2 (Substrate 2).
Int. J. Mol. Sci. 2019, 20, x FOR PEER REVIEW 2 of 2
Figure S2. Detection limit and pH optimum of KLK13 as determined for the optimized substrates.
Substrates 1 (A) and 2 (B) were titrated with decreasing amounts of KLK13 in 50 mM Tris-Cl (pH 7.5) buffer containing 1 mM EDTA and 0.5 μM heparin at 37 °C. ( C) pH dependence of KLK13. Processing […]
of ABZ-[…]3-NO 2)-NH2 by KLK13 was monitored at pH range of 3 to 10 (citric acid/sodium citrate, sodium acetate/acetic acid, MES, MOPS, HEPES and TRIS buffers).
Reaction progress was monitored by fluorescence detection at the excitation and emission wavelength […]
(1 picture or pasted object on this page, not shown here)

Experiment [5] relates to cathepsins (CatX, CatL, CatS, CatD, CatH, CatB). In words: Selectivity assessment of substrate 2: cathepsins. The format is biochemical. The conditions noted are these: substrate 6.15 μM, enzymes 1.25 nM, 37 °C, 50 mM Tris-Cl pH 7.5, 1 mM EDTA, 0.5 μM heparin; fluorescence 450 nm. The procedure:
(§1) Substrate 2 (6.15 μM) was incubated with tested kallikreins (KLK1, KLK2, KLK3, KLK4, KLK6, KLK8, KLK12, KLK13) and cathepsins (CatX, CatL, CatS, CatD, CatH, CatB), all at a concentration of 1.25 nM, at 37 °C in 50 mM Tris-Cl (pH 7.5) buffer containing 1 mM EDTA and 0.5 μM heparin. Proteolytic activity was assayed as an increase in fluorescence at 450 nm.

The test system of experiment [6] is KLK1, KLK2, KLK3, KLK4, KLK6, KLK8, KLK12. The experiment in a line: Selectivity assessment of substrate 2: other kallikreins. The conditions noted are these: substrate 6.15 μM, enzymes 1.25 nM, 37 °C, 50 mM Tris-Cl pH 7.5, 1 mM EDTA, 0.5 μM heparin; fluorescence 450 nm. The format is biochemical. Here is the method:
as §1

Experiment [7] deals with T1, KLK13. In words: pH dependence of KLK13 activity. The arrangement: His6 (the forward primers encode HHHHHH followed by DDDDK; the protein was purified on nickel) (N); made in house; host or cells: Leishmania tarentolae strain T7-TR (LEXSY), secreted to the medium. It is filed as biochemical. The conditions noted are these: KLK13 1.25 nM, substrate 6.15 µM, 37 °C, buffers pH 3 to 10. Here is the method: The pH dependence of KLK13 (1.25 nM) was established at 37 °C using substrate 2 (6.15 µM) in following buffers: citric acid/sodium citrate (pH 3), sodium acetate/acetic acid (pH 4 and 5), MES (pH 6), MOPS (pH 7), HEPES (pH 8) and TRIS (pH 9 and 10).

Experiment [8] has as its target T1, KLK13. In words: Site of hydrolysis by RP-HPLC with fluorescence detection and MS. It is filed as biochemical. The arrangement: His6 (the forward primers encode HHHHHH followed by DDDDK; the protein was purified on nickel) (N); made in house; host or cells: Leishmania tarentolae strain T7-TR (LEXSY), secreted to the medium. To be noted: RP-HPLC with fluorescence detection coupled to MS. The procedure:
The site of hydrolysis was determined after each step of deconvolution of primed site library and for both final substrates (1 and 2) by RP-HPLC monitored by fluorescence detection and MS.

Consider `CC(C)[C@H](NC(=O)COCCNC(=O)CCCC[C@@H]1SC[C@@H]2NC(=O)N[C@@H]21)C(=O)N[C@@H](CCCNC(=N)N)C(=O)N[C@@H](Cc1ccccc1)C(=O)N[C@@H](CCCNC(=N)N)C(=O)CCl` [Bt-PEG-VRFR-CMK, Bt-PEG-Val-Arg-Phe-Arg-CMK] ({Biotin-AEA}-VRFR-CH2Cl), for which the kass at KLK13 [1] stood at 204 ± 23 M⁻¹ s⁻¹. The “Detection limit of purified KLK13 in Western blot” value at KLK13 [2] is roughly 15 ng.
As to `CC(C)[C@H](NC(=O)CCCC[C@@H]1SC[C@@H]2NC(=O)N[C@@H]21)C(=O)N[C@@H](CCCNC(=N)N)C(=O)N[C@@H](Cc1ccccc1)C(=O)N[C@@H](CCCNC(=N)N)C(=O)CCl` [Bt-VRFR-CMK, Bt-Val-Arg-Phe-Arg-CMK] (Biotin-VRFR-CH2Cl), the kass at KLK13 [1] was found to be 49 ± 2 M⁻¹ s⁻¹.
In the case of “ABZ-VRFRSTE-Tyr(3-NO2)-NH2 [optimized substrate differing only at the P3′ position (Glu)]”, at KLK13 [3], the Km (as a rule, the substrate concentration at which the rate is half of its maximum) was found to be 24.7 ± 5.8 µM; the kcat (in general, the number of substrate molecules converted per active site and unit of time at saturation) stood at 91.11 ± 11.61 s⁻¹; the “kcat/KM (specificity constant)” value is on record as “(3.69 ± 0.40) ×10^6 M^−1·s^−1”.
The like results for “ABZ-VRFRSTG-Tyr(3-NO2)-NH2 [optimized substrate differing only at the P3′ position (Gly)]” were, in that order, 19.7 ± 3 µM, 169.40 ± 12.40 s⁻¹ and “(8.62 ± 0.37) ×10^6 M^−1·s^−1”.
For the compound “ABZ-VRFRSTS-Tyr(3-NO2)-NH2 [optimized substrate differing only at the P3′ position (Ser)]”, on KLK13 [3], the Km worked out at 14.7 ± 2.2 µM, the kcat stood at 113.12 ± 6.87 s⁻¹ and the “kcat/KM (specificity constant)” value is recorded as “(7.71 ± 0.67) ×10^6 M^−1·s^−1”.
“ABZ-Val-Arg-Phe-Arg-ANB-NH2 [Substrate 1, kinetically preferred non-primed fluorogenic/chromogenic KLK13 substrate]”: the “KLK13 concentration at which fluorescence increase was still detectable” value on KLK13 [4] was determined as 1.56 nM. Moreover, at KLK13 [3], the Km turned out to be 17.8 ± 2.8 µM, the kcat worked out at 94.36 ± 3.05 s⁻¹ and the “kcat/KM (specificity constant)” value was “over 5 × 10^6 M^−1·s^−1”. Besides, the “kcat/KM (specificity constant)” value at KLK13 [3] (listed as ABZ-VRFR-ANB-NH2 (1)) was “(5.31 ± 0.34) ×10^6 M^−1·s^−1”.
In the case of “ABZ-Val-Arg-Phe-Arg-Ser-Thr-Gln-Tyr(3-NO2)-NH2 [Substrate 2, internally quenched fluorogenic KLK13 substrate spanning P4-P3′]”, the Hydrolysis by cathepsins entry in experiment [5] was “None of tested cathepsins hydrolyzed”. Besides, the “Cleavage by other kallikreins relative to the activity of KLK13” value in experiment [6] is no more than 20%. In addition, the “Optimal pH for processing of the substrate by KLK13” value on KLK13 [7] is given as 9. Also, the “KLK13 concentration at which fluorescence increase was still detectable” value on KLK13 [4] was 0.0488 nM. Besides, the “Site of hydrolysis by KLK13” value on KLK13 [8] was “exclusively hydrolyzed at the Arg-Ser peptide bond”. Further, the Km on KLK13 [3] was found to be 10 ± 1.9 µM. The kcat at KLK13 [3] turned out to be 96.43 ± 7.15 s⁻¹. Besides, the “kcat/KM (specificity constant)” value is “(9.64 ± 1.08) ×10^6 M^−1·s^−1” at KLK13 [3] (listed as ABZ-VRFRSTQ-Tyr(3-NO2)-NH2 (2)), “≈ 10^7 M^−1·s^−1” at KLK13 [3] (listed as ABZ-Val-Arg-Phe-Arg-Ser-Thr-Gln-Tyr(3-NO2)-NH2) and roughly 1e+07 M⁻¹ s⁻¹ on KLK13 [3] (listed as substrate 2).
